For 26 compounds, IC50 results are on record in US20190211020A1 (Agency for Science, Technology and Research, priority 2012, published 2019).

Structures can show the parent of a compound that is named as a salt. Bounds are passed on as bounds.

The first experiment relates to eIF4E Ser209 phosphorylation in Hela cells. Briefly: MNK cell-based assay (AlphaScreen SureFire, eIF4E Ser209 phosphorylation). As to conditions: Homo sapiens, HeLa, 2 h, read-out: IC50 Hela. From the text:
It has been reported that Ser209 of eIF4E is solely phosphorylated by the MNK enzymes. The ability of compounds to inhibit this process in Hela cells was investigated using the AlphaScreen SureFire® assay platform from Perkin Elmer (Waltham, Mass.). eIF4E phosphorylated on Ser209 is recognized by two antibodies, the first which is fused to a streptavidin coated donor bead binds to an epitope away from Ser209, the second which is fused to a protein A conjugated acceptor bead binds to phosphorylated Ser209. The phosphorylation of eIF4E on Ser209 brings the two antibodies into close proximity and when excited by a laser a singlet oxygen is released by the donor bead which excites the acceptor bead resulting in the emission of light. This enables the monitoring of eIF4E Ser209 phosphorylation and its inhibition in a cellular context.
Hela cells were seeded into microtitre plates (30,000 cells per well) in 100 μl of culture medium and incubated at 37° C. for 24 hours. The media was then removed by aspiration and the cells resuspended in 50 μl of serum free medium containing the test compound and incubated at 37° C. for 2 hours. The culture medium was again removed by aspiration and the cells resuspended in lysis buffer (provided in Perkin Elmer SureFire® Assay Kit). After agitation at 350 rpm for 20 minutes at 22° C., 4 μl was transferred to a 384 well OptiPlate™ (Perkin Elmer, Waltham, Mass.). To each well was added 5 μl of acceptor mix; the plate was sealed and agitated gently at 22° C. for 2 hours. Then, in subdued light, 2 μl of donor mix was added to each well, the plate was sealed, wrapped in aluminum foil and agitated gently at 22° C. for 2 hours. Emission was measured using the EnVision® plate reader (Perkin Elmer, Waltham, Mass.).
Inhibition constants (IC50) were determined by plotting AlphaScreen signal versus log compound concentration and fitting with a non-linear regression algorithm using GraphPad Prism (GraphPad Software Inc.).
As to `CC1(N)CCN(C(=O)c2ccc(-c3ccc4ncc(-c5ccc(Cl)cc5)n4c3)cc2)CC1` [Example 173, (4-amino-4-methylpiperidin-1-yl)(4-(3-(4-chlorophenyl)imidazo [1,2-a]pyridin-6-yl)phenyl)methanone], the IC50 was less than 1 µM.
Consider `O=C1CCN(C(=O)c2ccc(-c3cn4c(-c5ccc(Cl)cc5)cnc4cn3)cc2)CC1` [Example 43, 1-(4-(3-(4-chlorophenyl)imidazo[1,2-a]pyrazin-6-yl)benzoyl)piperidin-4-one], for which the IC50 is less than 1 µM.

Staying with this experiment, now noted: Homo sapiens; eIF4E Ser209 phosphorylation, Hela cells, 2 hours; read-out: IC50 Hela.
As to `CC1(O)CCN(C(=O)c2ccc(-c3ccc4ncc(-c5ccc(C#N)cc5)n4c3)cc2)CC1` [Example 106, 4-(6-(4-(4-hydroxy-4-methylpiperidine-1-carbonyl)phenyl)imidazo[1,2-a]pyridin-3-yl)benzonitrile], the IC50 is less than 1 µM.
Take `Cc1cc(-c2ccc3ncc(-c4ccc(C#N)cc4)n3c2)ccc1C(=O)N1CCOCC1` [Example 156]: the IC50 was less than 1 µM.
On the same count and under the same terms, for `CCN(CC)C1(C)CCN(C(=O)c2ccc(-c3ccc4ncc(-c5ccc(C#N)cc5)n4c3)cc2)CC1` [Example 100, 4-(6-(4-(4-(diethylamino)-4-methylpiperidine-1-carbonyl)phenyl)imidazo[1,2-a]pyridin-3-yl)benzonitrile] the value was less than 1 µM; for `O=C(c1ccc(-c2cn3c(-c4ccc(Cl)cc4)cnc3cn2)cc1)N1CCNCC1` [Example 46, (4-(3-(4-chlorophenyl)imidazo[1,2-a]pyrazin-6-yl)phenyl)(piperazin-1-yl)methanone 2,2,2-trifluoroacetate salt], less than 1 µM.
Still for that read-out and setting: for `COc1cc(C(=O)N2CCN(C)CC2)ccc1-c1ccc2ncc(-c3ccc(C#N)cc3)n2n1` [Example 78, 4-(6-(2-methoxy-4-(4-methylpiperazine-1-carbonyl)phenyl)imidazo[1,2-b]pyridazin-3-yl)benzonitrile] the value was less than 1 µM; for `Cc1nnc(C2(C)CCN(C(=O)c3ccc(-c4ccc5ncc(-c6ccc(C#N)cc6)n5c4)cc3)CC2)o1` [Example 135, 4-(6-(4-(4-methyl-4-(5-methyl-1,3,4-oxadiazol-2-yl)piperidine-1-carbonyl)phenyl)imidazo [1,2-a]pyridin-3-yl)benzonitrile], less than 1 µM; for `N#Cc1ccc(-c2cnc3cnc(-c4ccc(C(=O)N5CCN(C6CC6)CC5)cc4)cn23)cc1` [Example 14, 4-(6-(4-(4-cyclopropylpiperazine-1-carbonyl)phenyl)imidazo[1,2-a]pyrazin-3-yl)benzonitrile], less than 1 µM.
The same measure, in the same setting: for `CC1(N)CCN(C(=O)c2ccc(-c3ccc4ncc(-c5ccc(C#N)cc5)n4n3)cc2)CC1` [Example 58, 4-(6-(4-(4-amino-4-methylpiperidine-1-carbonyl)phenyl)imidazo[1,2-b]pyridazin-3-yl)benzonitrile] the value was less than 1 µM; for `O=C1Cc2cc(-c3cnc4ccc(-c5ccc(C(=O)N6CCC(N7CCOCC7)CC6)cc5)nn34)ccc2N1` [Example 94, 5-(6-(4-(4-morpholinopiperidine-1-carbonyl)phenyl)imidazo[1,2-b]pyridazin-3-yl)indolin-2-one], less than 1 µM; for `CN1CCN(C(=O)c2ccc(-c3ccc4ncc(-c5ccc(C#N)cc5)n4c3)cc2)CC1` [Example 95, 4-(6-(4-(4-Methylpiperazine-1-carbonyl)phenyl)imidazo[1,2-a]pyridin-3-yl)benzonitrile], less than 1 µM.
Take `CNC1CCN(C(=O)c2ccc(-c3ccc4ncc(-c5ccc(C#N)cc5)n4c3)cc2NC(C)=O)CC1` [Example 169, N-(5-(3-(4-cyanophenyl)imidazo[1,2-a]pyridin-6-yl)-2-(4-(methylamino)piperidine-1-carbonyl)phenyl)acetamide]: the IC50 is less than 1 µM.
In the case of `N#Cc1ccc(-c2cnc3ccc(-c4ccc(C(=O)N5CCC(N)CC5)cc4)nn23)cc1` [Example 56, 4-(6-(4-(4-aminopiperidine-1-carbonyl)phenyl)imidazo[1,2-b]pyridazin-3-yl)benzonitrile], the IC50 is less than 1 µM.
In the case of `N#Cc1ccc(-c2cnc3ccc(-c4ccc(C(=O)N5CCNC(=O)C5)cc4)cn23)cc1` [Example 102, 4-(6-(4-(3-oxopiperazine-1-carbonyl)phenyl)imidazo[1,2-a]pyridin-3-yl)benzonitrile], the IC50 is less than 1 µM.
On the same count and under the same terms, then `CN1CCN(C(=O)c2ccc(-c3ccc4ncc(-c5ccc(C#N)cc5)n4c3)c(F)c2)CC1` [Example 140, 4-(6-(2-fluoro-4-(4-methylpiperazine-1-carbonyl)phenyl)imidazo [1,2-a]pyridin-3-yl)benzonitrile], with less than 1 µM; and `CN1CCN(C2(C)CCN(C(=O)c3ccc(-c4ccc5ncc(-c6ccc(C#N)cc6)n5c4)cc3)CC2)CC1` [Example 164, 4-(6-(4-(4-methyl-4-(4-methylpiperazin-1-yl)piperidine-1-carbonyl)phenyl)imidazo [1,2-a]pyridin-3-yl)benzonitrile], with less than 1 µM.
The same measure, in the same setting: for `CN1CCN(C(=O)c2ccc(-c3ccc4ncc(-c5ccc(C#N)cc5)n4n3)cc2F)CC1` [Example 73, 4-(6-(3-fluoro-4-(4-methylpiperazine-1-carbonyl)phenyl)imidazo[1,2-b]pyridazin-3-yl)benzonitrile] the value was less than 1 µM; for `O=C(c1ccc(-c2cn3c(-c4ccc(Cl)cc4)cnc3cn2)cc1)N1CCC(NC(=O)C(F)(F)F)CC1` [Example 48, N-(1-(4-(3-(4-chlorophenyl)imidazo [1,2-a]pyrazin-6-yl)benzoyl)piperidin-4-yl)-2,2,2-trifluoroacetamide], less than 1 µM.
`CNc1cc(-c2ccc3ncc(-c4ccc(C#N)cc4)n3c2)ccc1C(=O)N1CCOCC1` [Example 151, 4-(6-(3-(methylamino)-4-(morpholine-4-carbonyl)phenyl)imidazo[1,2-a]pyridin-3-yl)benzonitrile]: the IC50 was less than 1 µM.
The same measure, in the same setting: for `N#Cc1ccc(-c2cnn3ccc(-c4ccc(C(=O)N5CCOCC5)c(O)c4)nc23)cc1` [Example 187, 4-(5-(3-hydroxy-4-(morpholine-4-carbonyl)phenyl)pyrazolo [1,5-a]pyrimidin-3-yl)benzonitrile] the value was less than 1 µM; for `CN(C)C1CCN(C(=O)c2ccc(-c3ccc4ncc(-c5ccc(C#N)cc5)n4n3)cc2)CC1` [Example 63], less than 1 µM.
Still for that read-out and setting: then `N#Cc1ccc(-c2cnc3ccc(-c4ccc(C(=O)NCC(=O)N5CCOCC5)cc4)cn23)cc1` [Example 115, 4-(3-(4-cyanophenyl)imidazo[1,2-a]pyridin-6-yl)-N-(2-morpholino-2-oxoethyl)benzamide], with less than 1 µM.
In the case of `NC(=O)c1ccc(-c2cnc3cnc(-c4ccc(C(=O)N5CCC(N)CC5)cc4)cn23)cc1` [Example 4, 4-(6-(4-(4-aminopiperidine-1-carbonyl)phenyl)imidazo[1,2-a]pyrazin-3-yl) benzamide hydrochloride], the IC50 was less than 1 µM.
Still for that read-out and setting: for `N#Cc1ccc(-c2cnc3ccc(-c4ccc(C(=O)N5CCN(Cc6ccc(C(N)=O)cc6)CC5)cc4)cn23)cc1` [Example 129, 4-((4-(4-(3-(4-cyanophenyl)imidazo[1,2-a]pyridin-6-yl)benzoyl)piperazin-1-yl)methyl)benzamide] the value was less than 1 µM; for `N#Cc1ccc(-c2cnc3ccc(-c4ccc(C(=O)N5CCOCC5)c(F)c4)cn23)cc1` [Example 162, 4-(6-(3-fluoro-4-(morpholine-4-carbonyl)phenyl)imidazo [1,2-a]pyridin-3-yl)benzonitrile], less than 1 µM.

Usually IC50 stands for the concentration at which inhibition is half-maximal.
